Data taken from patent US11851436B2, “Fused bicyclic pyrimidine derivatives and uses thereof” (The Regents of the University of Colorado, A Body Corporate, priority 2021, dated 2023).

Legend:
[1] = target: recombinant RSK2 kinase (Homo sapiens (Human), UniProt P51812); experiment: LANCE Eu TR-FRET recombinant RSK2 kinase inhibition assay; format: biochemical; conditions: for IC50: recombinant RSK2, 3 μM ATP, mean ± S.D. (n=3)
Method: All reagents were prepared in kinase buffer containing 2 mM DTT, 50 mM HEPES, 1 mM EGTA, 10 mM MgCl2, 0.01% Tween 20, pH 7.5. […] RSK2 was used at a final concentration of […]. […] Assays were performed at 25° C. in a reaction mixture consisting of 2 μL serially diluted inhibitor solution, 4 μL kinase, 2 μL substrate, and 2 μL ATP. Reagents were incubated at room temperature for 1 h before the reaction was stopped through the addition of 5 μL of EDTA at a final concentration of 10 mM.
The exemplary compounds were evaluated for their effect on RSK2 activity in the recombinant TR-FRET kinase inhibition assay and their half-maximal inhibitory potency values (IC50) were calculated using nonlinear regression analysis of the log dose-response.

[2] = test system: MOLM-13 cells; experiment: MTS cellular viability assay in MOLM-13 cells; format: cell-based; conditions: Homo sapiens, 72 hr, 60 μM to 250 nM, n=3, ±S.D.
Method: Cell Culture: MOLM-13 (DSMZ) cells were cultured in RPMI1640 (Gibco) supplemented with 10% FBS (Sigma Aldrich) and 1% penicillin/streptomycin solution (Cellgro) at 37° C. in an incubator humidifier with 95% air and 5% CO2. HEK293 cells (ATCC) were cultured in Dulbecco's Modified Eagle Medium (DMEM; Gibco) supplemented with 10% FBS (Sigma Aldrich) and 1% penicillin/streptomycin solution (Cellgro) at 37° C. in an incubator humidifier with 95% air and 5% CO2. HEK293 cells were allowed to adhere for 24 h prior to use in assays.
MTS Cellular Viability Assay: MOLM-13 cells were seeded into sterile 96-well plates (Corning) at 60,000 cells per well in 100 μL of media. Inhibitor solutions were administered in 50 μL over a concentration range from 60 μM to 247 nM and cells were incubated at 37° C. for 24 to 72 h. Following 3 h incubation with 30 μL CellTiter 96® Aqueous One Cell Proliferation Reagent (Promega), cell viability was measured by formazan concentration assessment through colorimetric analysis using a BioTek Synergy H1 Hybrid plate reader (Absorption=490).
Exemplary compounds were assessed in cell systems for effects on cell viability, as well as their ability to inhibit cellular RSK2 activity.

recombinant RSK2 kinase, sequence (P51812 whole entry): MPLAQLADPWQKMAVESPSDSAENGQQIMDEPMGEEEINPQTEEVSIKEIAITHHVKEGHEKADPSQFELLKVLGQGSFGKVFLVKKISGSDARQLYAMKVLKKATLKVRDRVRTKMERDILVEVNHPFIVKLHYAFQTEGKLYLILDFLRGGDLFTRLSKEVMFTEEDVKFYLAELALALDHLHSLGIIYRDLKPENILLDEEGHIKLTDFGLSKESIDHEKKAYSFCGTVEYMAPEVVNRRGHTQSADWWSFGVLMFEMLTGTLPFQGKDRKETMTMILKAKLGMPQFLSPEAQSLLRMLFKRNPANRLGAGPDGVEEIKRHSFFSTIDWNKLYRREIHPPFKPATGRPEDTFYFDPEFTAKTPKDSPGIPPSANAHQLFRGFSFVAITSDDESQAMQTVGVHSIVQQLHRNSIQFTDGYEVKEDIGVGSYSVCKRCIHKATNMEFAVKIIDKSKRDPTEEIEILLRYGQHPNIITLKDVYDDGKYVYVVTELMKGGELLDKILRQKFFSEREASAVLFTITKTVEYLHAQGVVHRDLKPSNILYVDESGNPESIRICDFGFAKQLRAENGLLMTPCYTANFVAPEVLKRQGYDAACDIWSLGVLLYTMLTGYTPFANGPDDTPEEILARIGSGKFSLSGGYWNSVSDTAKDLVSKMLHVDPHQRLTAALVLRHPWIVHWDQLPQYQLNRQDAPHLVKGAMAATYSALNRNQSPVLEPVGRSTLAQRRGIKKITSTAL

Row | SMILES | IC50 [1] | EC50 [2] | activity rank in the recombinant kinase assay ([1]; statement in pharmacophore modeling text)
1 | Oc1c(F)cc(Nc2ncc3ncn(-c4cccc(Oc5ccccc5)c4)c3n2)cc1F [A1-6, 2,6-Difluoro-4-((9-(3-phenoxyphenyl)-9H-purin-2-yl)amino)phenol] | 329 ± 37 nM | – | –
2 | Oc1c(F)cc(Nc2ncc3ccn(-c4ccc(N5CCOCC5)cc4)c3n2)cc1F [A1-16, 2,6-Difluoro-4-((7-(4-morpholinophenyl)-7H-pyrrolo[2,3-d]pyrimidin-2-yl)amino)phenol] | 25.7 ± 2.4 nM | 230 ± 3 nM | –
3 | Oc1cccc(-n2cnc3cnc(Nc4cc(F)c(O)c(F)c4)nc32)c1 [A1-10, 2,6-Difluoro-4-((9-(3-hydroxyphenyl)-9H-purin-2-yl)amino)phenol] | 79.8 ± 4.6 nM | – | –
4 | Oc1ccc(-n2cnc3cnc(Nc4cc(F)c(O)c(F)c4)nc32)cc1 [A1-11, 2,6-Difluoro-4-((9-(4-hydroxyphenyl)-9H-purin-2-yl)amino)phenol] | 81.8 ± 0.7 nM | – | –
5 | Oc1c(F)cc(Nc2ncc3ncn(-c4ccc(Oc5ccccc5)cc4)c3n2)cc1F [A1-7, 2,6-Difluoro-4-((9-(4-phenoxyphenyl)-9H-purin-2-yl)amino)phenol] | 148 ± 27 nM | – | –
6 | CN1CCN(c2ccc(-n3ccc4cnc(Nc5cc(F)c(O)c(F)c5)nc43)cc2)CC1 [A1-17, 2,6-Difluoro-4-((7-(4-(4-methylpiperazin-1-yl)phenyl)-7H-pyrrolo[2,3-d]pyrimidin-2-yl)amino)phenol] | 34.7 ± 1.3 nM | 70 ± 3 nM | –
7 | CC(C)CCn1ccc2cnc(Nc3cc(F)c(O)c(F)c3)nc21 [A1-15, 2,6-Difluoro-4-((7-isopentyl-7H-pyrrolo[2,3-d]pyrimidin-2-yl)amino)phenol] | 95.8 ± 11 nM | 1300 ± 60 nM | –
8 | CC(C)CCn1cnc2cnc(Nc3cc(F)c(O)c(F)c3)nc21 [A1-2, 2,6-Difluoro-4-((9-isopentyl-9H-purin-2-yl)amino)phenol] | 55.5 ± 5.6 nM | 970 ± 100 nM | –

These reach a lower IC50 [1]. Values come first.

Row | IC50 [1] | EC50 [2] | activity rank in the recombinant kinase assay ([1]; statement in pharmacophore modeling text) | SMILES
9 | 18.4 ± 4 nM | 1900 ± 70 nM | – | Oc1c(F)cc(Nc2ncc3ncn(-c4ccc(CCN5CCOCC5)cc4)c3n2)cc1F [A1-4, 2,6-Difluoro-4-((9-(4-(2-morpholinoethyl)phenyl)-9H-purin-2-yl)amino)phenol]
10 | 24.6 ± 3 nM | – | – | Oc1c(F)cc(Nc2ncc3ncn(-c4ccc(N5CCOCC5)cc4)c3n2)cc1F [A1-3, 2,6-Difluoro-4-((9-(4-morpholinophenyl)-9H-purin-2-yl)amino)phenol]
11 | 17.8 ± 1 nM | 13900 ± 700 nM | most active molecule | COC(=O)CCCc1ccc(-n2cnc3cnc(Nc4cc(F)c(O)c(F)c4)nc32)cc1 [A1-13, Methyl 4-(4-(2-((3,5-difluoro-4-hydroxyphenyl)amino)-9H-purin-9-yl)phenyl)butanoate]
12 | 15.7 ± 4 nM | – | – | COC(=O)CCc1ccc(-n2cnc3cnc(Nc4cc(F)c(O)c(F)c4)nc32)cc1 [A1-12, Methyl 3-(4-(2-((3,5-difluoro-4-hydroxyphenyl)amino)-9H-purin-9-yl)phenyl)-propanoate]
